In US20100105638A1, “COSMETIC COMPOSITIONS” (priority 2007, published 2010):
Where two headings read alike, the source gives them in different places.

Columns and labels:
[1] = hot water; cited from earlier work
[2] = Solubility of Biotin in aqueous niacinamide / sodium ascorbyl phosphate solutions (addition until turbid); type: physicochemical
Procedure: The solubility of Biotin was assessed in aqueous niacinamide (Niacinamide PC, DSM Nutritional Products)/sodium ascorbyl phosphate (STAY-C® 50, DSM Nutritional Products) solutions in different concentration. As reference, the solubility of biotin in water was assessed.
After the addition of 5 g of water into a 10 ml glass vial, STAY-C® 50 and Niacinamide PC were added in order to yield the ratios and wt. % as indicated in table 1. The mixtures were stirred with a magnetic stirrer at RT until STAY-C® 50 and Niacinamide PC were completely dissolved. Then, biotin was added in about 1 mg steps to the mixture until the solution becomes turbid. This experiment was repeated twice.
The sum of the amount of biotin which was added before the turbidity occurred is taken as the solubility of Biotin.

SMILES: O=C(O)CCCC[C@@H]1SC[C@@H]2NC(=O)N[C@@H]21 [Biotin]
- Solubility of Biotin [1]: about 0.02 g/100 ml
- Solubility of Biotin ([2]; Reference: water without STAY-C 50 and Niacinamide PC, RT): 0.022 wt. %
- Solubility of Biotin ([2]; water, STAY-C 50 0.1 wt. %, Niacinamide PC 1 wt. %, ratio 1:10, RT): 0.15 wt. %
- Solubility of Biotin ([2]; water, STAY-C 50 0.1 wt. %, Niacinamide PC 3 wt. %, ratio 1:30, RT): 0.17 wt. %
- Solubility of Biotin ([2]; water, STAY-C 50 0.1 wt. %, Niacinamide PC 5 wt. %, ratio 1:50, RT): 0.20 wt. %
- Solubility of Biotin ([2]; water, STAY-C 50 0.1 wt. %, Niacinamide PC 10 wt. %, ratio 1:100, RT): 0.26 wt. %
- Solubility of Biotin ([2]; water, STAY-C 50 0.5 wt. %, Niacinamide PC 1 wt. %, ratio 1:2, RT): 0.33 wt. %
- Solubility of Biotin ([2]; water, STAY-C 50 0.5 wt. %, Niacinamide PC 3 wt. %, ratio 1:6, RT): 0.38 wt. %
- Solubility of Biotin ([2]; water, STAY-C 50 0.5 wt. %, Niacinamide PC 5 wt. %, ratio 1:10, RT): 0.41 wt. %
- Solubility of Biotin ([2]; water, STAY-C 50 0.5 wt. %, Niacinamide PC 10 wt. %, ratio 1:20, RT): 0.47 wt. %
- Solubility of Biotin ([2]; water, STAY-C 50 1.0 wt. %, Niacinamide PC 1 wt. %, ratio 1:1, RT): 0.64 wt. %
- Solubility of Biotin ([2]; water, STAY-C 50 1.0 wt. %, Niacinamide PC 3 wt. %, ratio 1:3, RT): 0.66 wt. %
- Solubility of Biotin ([2]; water, STAY-C 50 1.0 wt. %, Niacinamide PC 5 wt. %, ratio 1:5, RT): 0.70 wt. %
- Solubility of Biotin ([2]; water, STAY-C 50 1.0 wt. %, Niacinamide PC 10 wt. %, ratio 1:10, RT): 0.76 wt. %
- Solubility of Biotin ([2]; water, STAY-C 50 3.0 wt. %, Niacinamide PC 1 wt. %, ratio 3:1, RT): 1.53 wt. %
- Solubility of Biotin ([2]; water, STAY-C 50 3.0 wt. %, Niacinamide PC 3 wt. %, ratio 1:1, RT): 1.65 wt. %
- Solubility of Biotin ([2]; water, STAY-C 50 3.0 wt. %, Niacinamide PC 5 wt. %, ratio 1:1.6, RT): 1.71 wt. %
- Solubility of Biotin ([2]; water, STAY-C 50 3.0 wt. %, Niacinamide PC 10 wt. %, ratio 1:3.3, RT): 1.78 wt. %
